Measurements as given in patent US20220177511A1, “SERIES OF HALOGENATED TETRACYCLIC TRITERPENE DERIVATIVES AND THEIR PREPARATION AND APPLICATION” (SHANGHAI KING-X BIOTECH CO., LTD, priority 2019, published 2022).
“Also recorded” adds a separate entry of the source. Read-outs that look alike come from different tables or passages of the source.

Tests used:
[1] = Plasma pharmacokinetics after single intragastric administration in rats; assay type: in vivo, SD rat; conditions: for AUC0-t / AUC(0-inf) / CL/F / Cmax / Tmax / half-life / MRT inf / Vd/F: single gavage 10 mg/kg, Mean ± SD; for bioavailability: SD, single gavage 10 mg/kg vs intravenous 2 mg/kg; for MRT inf: read-out: MRT0-∞; for Vd/F: read-out: Vz/F
Procedure: Strain: SD rat; Gender: half male and female. Weight: about 200-250 g. Source: Shanghai Slac Laboratory Animal Co., Ltd. Laboratory Animal Production License No.: SOCK (Shanghai) 2017-0005. Laboratory Animal Use License Certificate number: SYXK (Shanghai) 2014-0018. Breeding: constant temperature purification and ventilation animal room, 20-26° C., free food and water, humidity 40-70%, light for 12 h.
Route A: single oral administration. Volume: calculated according to 10 mL/kg body weight. Preparation: an appropriate amount of compound 2 is added to a small amount of 0.5% CMC-Na and grinded, and another portion of 0.5% CMC-Na was added to form a suspension.
12 SD rats were divided into 2 groups, 6 rats in each group, […]. Fasting for 12 h before administration, free drinking water. The doses of 10 mg/kg were administered as a single gavage, and the doses of 2 mg/kg were administered as a single intravenous injection. About 100 μL orbital blood was collected before administration, 3 min, 10 min, 20 min, 30 min, 1 h, 2 h, 3 h, 4 h, 6 h, 8 h, 11 h, and 24 h after administration. For intravenous administration, orbital blood was collected before administration, 3 min, 8 min, 15 min, 30 min, 1 h, 2 h, 3 h, 4 h, 6 h, 8 h, 11 h, 24 h after injection. The blood was anticoagulated with 1% heparin, centrifuged at 8000 rpm for 4 min, and the plasma was separated. Store at −20° C. High concentration samples were diluted with blank plasma. 2.1.4 Determination method of plasma samples 2.1.4.1 Instrument (LC-MS/MS)
Liquid chromatography system: Ultimate3000 liquid chromatography system (including Ultimate3000 ternary infusion pump, Ultimate3000 column oven, Ultimate3000 autosampler and Ultimate3000 vacuum degasser), Dionex Corporation. MS/MS system: 4000 Q-Trap tandem mass spectrometer with electrospray ionization source (ESI source), AB Company
Column: Athena C18-WP 100A (2.1×50 mm, 5 μm); Injection volume: 10 μL; Mobile phase: A: acetonitrile; C: 0.05% ammonia, gradient elution (see table below); Flow rate: 0.3 mL/min
The ion source is electrospray ionization source (ESI), the drying gas (N2) temperature is 500° C., the electrospray voltage is −4500 V, the detection method is negative ion detection, the scanning method is the […] (MRM) method and the scanning time is 0.15 s. The mass spectrometry parameters are as follows:
50 μL of rat whole blood was added with 2.5 μL of internal standard working solution (250 ng/mL tolbutamide). 150 μL of acetonitrile was used to precipitate the proteins. The sample was centrifuged at 13,000 rpm and 4° C. for 5 min. The upper organic phase was taken and filtered with a 0.22 μM microporous membrane, which was then analyzed by LC-MS/MS. […]

[2] = test system: C57 mouse CHF model; experiment: In vivo efficacy on chronic heart failure in mice (coronary artery ligation, echocardiography), enalapril control; conditions: for Cardiac output per minute (CO), day 28 vs day 0: p<0.01 or p<0.05 (FIG. 6)
Procedure: C57 mouse coronary artery ligation method was used in this experiment to prepare the mouse CHF model. The differences in echocardiography, hemodynamics and histopathology of the model were observed after administration. Test substance: compound 2. Solvent: 0.3% sodium carboxymethyl cellulose. Dosage: 1 mg/kg, 3 mg/kg, 10 mg/kg, 30 mg/kg and 100 mg/kg. Route of administration: intragastric. Control drug: enalapril 2 mg/kg. Strain: C57 mouse; Age: 7 weeks; Weight: 18-20 g; Gender: Male; Grade: SPF C57 mouse CHF model was established by coronary artery ligation method in this experiment. The differences in echocardiography, hemodynamics and histopathology of the model were observed after administration. 5 dose groups were set for compound 2 in this experiment. Enalapril was selected as the positive control. Once daily for 28 consecutive days. The doses for each group was 1 mg/kg, 3 mg/kg, 10 mg/kg, 30 mg/kg and 100 mg/kg. Positive control group: Enalapril (2 mg/kg) was administered after CHF was established. The mice were anesthetized in a box filled with isoflurane. After the mice were anesthetized, the left 4th intercostal space was opened to expose the left atrial appendage and left ventricle. It can be seen that the left coronary artery runs downward from the middle of the left atrial appendage to the anterior wall of the left ventricle. The coronary artery is sutured at a high position about 1 mm from the lower border of the left atrial appendage. After ligation, the myocardium gradually changes from fleshy red to pale white, indicating myocardial infarction. The model is successfully established, and the chest is closed layer by layer. After the spontaneous breathing of the mice recovered, the mice were caged and reared in a day-night cycle with free access to water and food. After being reared for 30 days, the chronic heart failure model was detected by echocardiography, and the mice with successful chronic heart failure model were selected. Qualified CHF mice screened by echocardiography were randomly grouped. Mice were given compound 2 by intragastric administration once daily for 28 consecutive days. The body weight of mice was measured every week, and echocardiography was performed after 28 days of administration. After the […] anesthetized, 1 mm^3 tissue was taken from the hearts of 3 mice in each group, fixed with electron microscope fixative, and detected by transmission electron microscope to observe the ultrastructure of the heart. All remaining heart tissues were fixed with 10% formaldehyde, and stained with HE for histopathology to observe histopathological changes.

[3] = both sexes, rat, plasma, po, all rats (♂ and ♀)
[4] = female, rat, plasma, po, rats ♀
[5] = mice with heart failure, intragastric once daily 28 days, dose not stated

Compound CC(C)(O)[C@@H]1CC[C@](C)([C@H]2[C@@H](O)C[C@@]3(C)[C@@H]4C[C@H](O)[C@H]5C(C)(C)C(F)(F)CC[C@@]56C[C@@]46CC[C@]23C)O1 [Compound 2, (2aR,3R,4S,5aS,5bS,7S,7aR,11aR,12aS)-9,9-difluoro-3-((2R,5S)-5-(2-hydroxypropan-2-yl)-2-methyltetrahydrofuran-2-yl)-2a,5a,8,8-tetramethyltetradecahydro-1H,12H-cyclopenta[a]cyclopropa[e]phenanthrene-4,7-diol] has an AUC0-t ([1]; all rats (♂ and ♀), 10 mg/kg) of 1916 ng·h/mL, a bioavailability ([1]; both sexes, rat, plasma, po, all rats (♂ and ♀), read-out: F (mean absolute bioavailability)) of 22% and an AUC(0-inf) [1, 3] of 2450 ± 3070 ng·h/mL. It also gave a CL/F [1, 3] of 140 mL/min/kg, a Cmax [1, 3] of 323 ng/mL and a Tmax [1, 3] of 2.17 h. The half-life [1, 3] was 2.89 h, the AUC0-t ([1]; both sexes, rat, plasma, po, all rats (♂ and ♀), read-out: AUC0-t) was 1920 ng·h/mL and the MRT inf [1, 3] was 4.4 ± 1.28 h. The Vd/F [1, 3] was 27.9 ± 19 L/kg, the bioavailability ([1]; female, rat, plasma, po, rats ♀, read-out: F (absolute bioavailability)) was 28.4% and the AUC(0-inf) [1, 4] was 4040 ± 3990 ng·h/mL. For the same compound, the CL/F [1, 4] was 71.2 mL/min/kg, the Cmax [1, 4] was 459 ± 277 ng/mL and the Tmax [1, 4] was 2.33 ± 0.58 h. It also gave a half-life [1, 4] of 3.64 ± 2.54 h, an AUC0-t ([1]; female, rat, plasma, po, rats ♀, read-out: AUC0-t) of 3000 ± 2430 ng·h/mL and an MRT inf [1, 4] of 5.01 ± 1.71 h. The Vd/F [1, 4] was 15.8 ± 9.24 L/kg, the bioavailability ([1]; male, rat, plasma, po, rats ♂, read-out: F (absolute bioavailability)) was 15.6% and the AUC(0-inf) ([1]; male, rat, plasma, po, rats ♂) was 859 ± 297 ng·h/mL. It also gave a CL/F ([1]; male, rat, plasma, po, rats ♂) of 208 mL/min/kg, a Cmax ([1]; male, rat, plasma, po, rats ♂) of 187 ± 37 ng/mL and a Tmax ([1]; male, rat, plasma, po, rats ♂) of 2 ± 1 h. The half-life ([1]; male, rat, plasma, po, rats ♂) was 2.14 ± 0.64 h, the AUC0-t ([1]; male, rat, plasma, po, rats ♂, read-out: AUC0-t) was 831 ng·h/mL and the MRT inf ([1]; male, rat, plasma, po, rats ♂) was 3.78 ± 0.24 h. For the same compound, the Vd/F ([1]; male, rat, plasma, po, rats ♂) was 40 ± 19.5 L/kg, the “Short axis shortening rate (FS %), day 28 vs day 0” value ([2]; 10 mg/kg group, p<0.0005 (FIG. 7)) was “significant increase; also recorded: significant elevated” and the “EF value, day 28 vs day 0” value ([2]; 10 mg/kg group, p<0.0005, highest increase p<0.0001 (FIG. 5)) was “significantly increased”. The “Cardiac output per minute (CO), day 28 vs day 0” value ([2]; 10 mg/kg group) was “significantly increased”, the “EF value, day 28 vs day 0” value ([2]; 30 mg/kg group, p<0.0005 (FIG. 5)) was “significantly increased” and the “Cardiac output per minute (CO), day 28 vs day 0” value ([2]; 30 mg/kg group) was “significantly increased”. The “Cardiac output per minute (CO), day 28 vs day 0” value ([2]; 100 mg/kg group) was “significantly increased”, the CO per minute [2, 5] was “significantly increased” and the “ejection fraction (EF)” value [2, 5] was “significantly increased”. For the same compound, the “heart rate (HR)” value [2, 5] was “without increasing”, the “short-axis shortening rate (FS)” value [2, 5] was “significantly increased” and the melting point was 189 to 192 °C.
